Values joined by “and” are separate entries in the source; they are usually repeats but may differ in a detail not shown here. Identical values can stand only once.
Key:
[1] = system: subcutaneous U87MG tumor; assay: Fluorescence imaging of hNQO1 in subcutaneous U87MG tumor-bearing mice with NQ-DCP; assay type: in vivo
Protocol: Fluorescence Imaging of hNQO1 in U87MG Tumor-Bearing Mice. With the prominent performance of NQ-DCP in cellular fluorescence imaging, the inventors further applied this probe to evaluate its capacity for the noninvasive fluorescence imaging of hNQO1 in vivo. NQ-DCP (10 mg/kg, 50 μL) was intravenously injected into sub-cutaneous U87MG tumor-bearing mice. The whole-body fluorescence was imaged with a Caliper IVIS Spectral imaging system. […] The host organs and tumor from the mice administered with NQ-DCP were harvested and their fluorescence was analyzed ex vivo using the IVIS to confirm the tumor-selective targeting ability of NQ-DCP. […] The application of NQ-DCP to image hNQO1 activity was also investigated in intracranial U87MG tumor-bearing mice. Tumor xenografts were established by implanting exponentially growing U87MG-Luc cells by stereotaxic injection into mice brain and the tumor growth was assessed by quantitative bioluminescence using IVIS (in vivo imaging system) (FIG. 7C). […] Therefore, the inventors performed intracranial injection of NQ-DCP (100 μM, 5 μL) to both healthy and tumor-bearing mice, the brain was isolated after 30 min and fluorescence images acquired.
Four-week-old male and female NCG and athymic nude mice were housed in a micro ventilated caging system in a sterile environment and fed ad-libitum with standard irradiated research rodent diet and water. […]

[2] = target: NQO1 (Homo sapiens, UniProt P15559); assay: Spectroscopic response of NQ-DCP to hNQO1; assay type: biochemical
Protocol: Spectroscopic Response of NQ-DCP to hNQO1. The spectroscopic response of the NQ-DCP probe to an hNQO1 enzyme in the presence of NADH was evaluated in a physiologically relevant buffer (0.1% BSA and 100 μM NADH containing PBS) to determine its ability to detect hNQO1. The absorption and fluorescence spectra of NQ-DCP in the absence and presence of hNQO1 are shown in FIGS. 2A and B. In the presence of hNQO1, although there was a distinct color change from yellow to red there was no difference found in the absorption maximum (425 nm) of NQ-DCP ([…]). Further, the reaction of NQ-DCP probe with hNQO1 produced a huge fluorescence enhancement at 565 nm with a large Stokes shift (140 nm) (FIG. 2B), which is favorable for sensitive detection and bioimaging analysis, because of a non-overlapping fluorescence emission. […] The inventors measured the fluorescence spectra of NQ-DCP (10 μm) following incubation with different concentrations of hNQO1 (0.12, 0.25, 0.5, 1.0, 1.5, 2.0, and 2.5 μg/mL (0.0038, 0.008, 0.016, 0.032, 0.048, 0.064, 0.08 μmol)) along with 100 μM NADH at pH 7.4 for 30 min. […] On incubation with hNQO1, the fluorescence intensity at 565 nm increased progressively with the NQO1 concentration and reached a maximum when the hNQO1 concentration was 2.5 μg/mL. The fluorescence intensity at 565 nm was linear with hNQO1 concentration, 0.25-2.0 μg/mL (FIG. 2D). The hNQO1 detection limit (LOD) of NQ-DCP was calculated to be as low as 0.095 μg/mL, based on the standard deviation of the response (Sy) and the slope of the calibration curve (S) according to the formula: LOD=3.3(Sy/S).
Spectroscopic Methods. For absorption and fluorescence measurements, all samples were first dissolved in 100% DMSO to obtain 10 mM stock solutions and then diluted to desired concentrations in PBS buffer containing 0.1% BSA for measurement. All spectroscopic measurements were performed under physiological conditions (pH 7.4 at room temperature. hNQO1 specific NQ-DCP activation was performed under philological conditions (PBS with 0.1% of BSA at 37° C.) in the presence of 100 μM NADH for 30 min. Time-dependent fluorescent intensity changes for different concentrations of […] in the presence of NQO1 (2.0 μg/mL) and 100 μM NADH were measured using Hitachi F-2500 Fluorescence spectrophotometer (λex=420 nm and λem=565 nm).

Sequence of NQO1 (P15559 whole entry): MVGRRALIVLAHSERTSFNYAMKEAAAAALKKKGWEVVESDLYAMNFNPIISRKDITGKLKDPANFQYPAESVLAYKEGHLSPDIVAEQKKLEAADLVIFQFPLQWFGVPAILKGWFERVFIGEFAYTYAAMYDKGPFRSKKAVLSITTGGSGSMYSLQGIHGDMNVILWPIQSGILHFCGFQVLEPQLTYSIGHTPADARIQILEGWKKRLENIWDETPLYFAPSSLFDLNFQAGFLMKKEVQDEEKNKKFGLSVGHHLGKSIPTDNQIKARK

Stokes-Shift [2]: 145 | λabs/em [2]: 420/465 | hNQO1 concentration range in which fluorescence intensity at 565 nm was linear ([2]; 10 μM probe, 100 μM NADH, 30 min): 0.25 to 2.0 µg/mL | hNQO1 detection limit (LOD) ([2]; 10 μM probe, 100 μM NADH, pH 7.4, 30 min, LOD=3.3(Sy/S)): 0.095 µg/mL | stability in the absence of hNQO1 ([2]; PBS with 0.1% BSA, 100 μM NADH, pH 7.4, 30 min, no hNQO1): highly stable | Stokes shift ([2]; after reaction with hNQO1): 145 nm and 140 nm | fluorescence enhancement (emission wavelength) ([2]; after reaction with hNQO1): 565 nm | absorption maximum ([2]; no difference in the presence of hNQO1): 425 nm
SMILES: CC1=C(C)C(=O)C(C(C)(C)CC(=O)Oc2ccc(/C=C/C3=CC(=C(C#N)C#N)CC(C)(C)C3)cc2)=C(C)C1=O [NQ-DCP]
time of maximum fluorescence in the tumor ([1]; 10 mg/kg, 50 μL, intravenous): 30 min | ex vivo fluorescence in tumor and organs ([1]; organs harvested after intravenous NQ-DCP, 30 min): selectively observed in the tumor and not in any other major organs
